In ChEMBL document CHEMBL1128572, “Synthesis and biology of 1D-3-deoxyphosphatidylinositol: a putative antimetabolite of phosphatidylinositol-3-phosphate and an inhibitor of cancer cell colony formation” (J Med Chem, 1995):

Legend:
HT-29 = test: Inhibition of colony formation of […] human colon carcinoma cell lines; format: functional, cell-based
[1] = Inhibition of murine Phosphatidylinositol 3-kinase (No effect); design: species or system Mus musculus
[2] = Inhibition of murine Phosphatidylinositol 3-kinase; design: species or system Mus musculus

IC50 (HT-29) [µM]	IC50 [1]	IC50 [2] [µM]	SMILES
35	Not Active	–	CCCCCCCCCCCCCCCC(=O)OCC(COP(=O)(O)O[C@H]1[C@@H](O)[C@@H](O)[C@H](O)C[C@H]1O)OC(=O)CCCCCCCCCCCCCCC (some centres undefined)
37	–	30	CCCCCCCCCCCCCCCC(=O)OCC(COP(=O)(O)OC1C(O)C(O)C(O)C(F)C1O)OC(=O)CCCCCCCCCCCCCCC (centres undefined)
